Our source for the IC50 and inhibition values is ChEMBL document CHEMBL1154080, “2D-QSAR and 3D-QSAR/CoMFA analyses of the N-terminal substituted anthranilic acid based CCK(1) receptor antagonists: 'Hic Rhodus, hic saltus'” (Bioorg Med Chem, 2009).

Assay [1] addresses T1, Cholecystokinin receptor type A (Rattus norvegicus, UniProt P30551).
T1 sequence (P30551 whole entry): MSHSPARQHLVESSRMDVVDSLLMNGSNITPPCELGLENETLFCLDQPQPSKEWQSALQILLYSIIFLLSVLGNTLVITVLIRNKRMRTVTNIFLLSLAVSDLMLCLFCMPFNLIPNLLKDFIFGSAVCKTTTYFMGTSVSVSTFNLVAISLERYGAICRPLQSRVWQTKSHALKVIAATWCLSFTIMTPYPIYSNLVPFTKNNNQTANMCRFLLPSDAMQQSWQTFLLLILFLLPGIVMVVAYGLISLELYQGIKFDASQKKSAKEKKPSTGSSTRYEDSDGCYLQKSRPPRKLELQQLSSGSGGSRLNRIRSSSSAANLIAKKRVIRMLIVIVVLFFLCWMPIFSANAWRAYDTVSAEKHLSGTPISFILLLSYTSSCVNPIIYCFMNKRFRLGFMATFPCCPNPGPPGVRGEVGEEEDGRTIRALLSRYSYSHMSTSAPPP
Put plainly: Displacement of [125I]-CCK8 from CCK1 receptor in rat pancreatic acinar cells. (In general: In a radioligand displacement assay an active substance lowers the binding of a labelled ligand.)

Assay [2] is filed under the species Cavia porcellus. Put plainly: (§1) Displacement of [125I]-CCK8 from CCK2 receptor in guinea pig cerebral cortex. In kind it is tissue-based. The note with it: concentration not given here.
The species entered for assay [3] is Cavia porcellus. The assay is described as follows: Displacement of [125I]-CCK8 from CCK2 receptor in guinea pig cerebral cortex at 10 uM. In kind it is tissue-based.
The species named for assay [4] is Cavia porcellus. Put plainly: Displacement of [125I]-CCK8 from CCK2 receptor in guinea pig cerebral cortex at 3 uM. In kind it is tissue-based.
Assay [5] deals with T2, Cholecystokinin receptor type A (Rattus norvegicus) (UniProt P30551).
T2 sequence (whole entry): T1 sequence (P30551 whole entry)
The assay is described as follows: Displacement of [125I]-CCK8 from CCK1 receptor in rat pancreatic acinar cells 30 uM.

Assay [6] is described as follows: as §1. In kind it is tissue-based, Cavia porcellus.
Assay [7] has as its target T2, Cholecystokinin receptor type A (Rattus norvegicus). The assay is described as follows: Displacement of [125I]-CCK8 from CCK1 receptor in rat pancreatic acinar cells at 1 uM.
The species entered for assay [8] is Cavia porcellus. Put plainly: Displacement of [125I]-CCK8 from CCK2 receptor in guinea pig cerebral cortex at 30 uM. In kind it is tissue-based.
Assay [9] deals with T2, Cholecystokinin receptor type A (Rattus norvegicus). Put plainly: Displacement of [125I]-CCK8 from CCK1 receptor in rat pancreatic acinar cells at 3 uM.

Broadly, the IC50 is the concentration needed to halve the response being measured. In general, inhibition refers to the drop in the measured response relative to a control, in per cent. Low values mean little suppression, high ones strong suppression. In assay [1], `O=C(Nc1ccccc1C(=O)N[C@@H](Cc1ccccc1)C(=O)O)c1cc2ccccc2[nH]1` displayed an IC50 of 10.2 µM. In assay [2], the inhibition stood at 52%.
`O=C(Nc1ccccc1C(=O)NC(Cc1ccccc1)C(=O)O)C1=Cc2ccccc2C1` (racemic): in assay [3], the inhibition is less than 20%.
In [1], `Cn1c(C(=O)Nc2ccccc2C(=O)NC(Cc2ccccc2)C(=O)O)cc2cc([N+](=O)[O-])ccc21` (racemic) gave an IC50 of 1.11 µM. This compound returned an inhibition in assay [4] of less than 20%.
`O=C(CC12CC3CC(CC(C3)C1)C2)Nc1ccccc1C(=O)NC(Cc1ccccc1)C(=O)O` (racemic) had an inhibition in assay [5] of 51%. Further, in assay [6], the IC50 worked out at 15.4 µM.
Consider `COc1cc2cc(C(=O)Nc3ccccc3C(=O)NC(Cc3ccccc3)C(=O)O)[nH]c2cc1OC` (racemic), for which the inhibition in [4] and in assay [7] was less than 20% each time.
As to `O=C(/C=C/c1ccccc1[N+](=O)[O-])Nc1ccccc1C(=O)NC(Cc1ccccc1)C(=O)O` (racemic), the inhibition was 46% in [8] and less than 20% in assay [9].
Consider `O=C(Nc1ccccc1C(=O)NC(Cc1ccccc1)C(=O)O)c1cc2cc(OCc3ccccc3)ccc2[nH]1` (racemic), for which the inhibition in assay [4] and in assay [7] was less than 20% in each case.
Consider `O=C(Nc1ccccc1C(=O)NC(Cc1ccccc1)C(=O)O)c1ccccn1` (racemic), for which the inhibition was 31% in [8] and less than 20% in assay [9].
On to `O=C(Nc1ccccc1C(=O)NC(Cc1ccccc1)C(=O)O)c1cccnc1` (racemic), for which the results for the inhibition in [8] and in [9] were 44% and less than 20%, respectively.
With `O=C(Nc1ccccc1C(=O)NC(Cc1ccccc1)C(=O)O)c1ccco1` (racemic), the inhibition in assay [8] was 27%; in assay [9], 24%.
On to `O=C(Nc1ccccc1C(=O)NC(Cc1ccccc1)C(=O)O)c1ccncc1` (racemic), for which the values for the inhibition in assay [8] and in assay [9] were 26% and less than 20%, respectively.
On to `O=C(Nc1ccccc1C(=O)NC(Cc1ccccc1)C(=O)O)c1cnccn1` (racemic), for which the inhibition in [8] and in assay [9] was less than 20% in each case.
